Measurements as given in patent publication US20230100062A1, “ANTIMICROBIAL PEPTIDES” (priority 2019, published 2023).
In brackets after ≈: the same amount, converted by molar mass. Square brackets hold non-standard residues; d marks the D form. Ends that are not written are not given here. * marks the point of attachment. For = O=C*

Legend:
[1] = system: S. aureus (ATCC 6538); assay: microbe, parasite or virus in culture; type: cell-based; conditions: for antibacterial activity in words: S. aureus, summary of MICs
Protocol: (§1) Minimum Inhibitory Concentrations assay. Minimum inhibitory concentrations (MICs) were determined by broth microdilution on P. aeruginosa, E. coli, S. aureus, M. luteus, B. subtilis, S. typhimurium and K. pneumoniae according to the Clinical and Laboratory Standards Institute. Typically, 100 μL of 0.5-1×10^6 CFU per ml of each bacterium in Mueller Hinton media broth (Oxoid) were incubated in 96-well microtiter plates with 100 μL of serial two-fold dilutions of the corresponding antimicrobial agent (from 100 to 0 μM) at 37° C. on a 3D orbital shaker. The absorbance was measured after the addition of NI01, its derivatives or an antibiotic at 600 nm using a SpectraMax i3× Multi-Mode Microplate Reader (Molecular Devices). MICs were defined as the lowest protein concentration that inhibited visible bacterial growth after 24 h at 37° C.

[2] = system: M. luteus (ATCC 49732); assay: microbe, parasite or virus in culture; type: cell-based
Protocol: as §1

[3] = system: B. subtilis (ATCC 6633); assay: microbe, parasite or virus in culture; type: cell-based
Protocol: as §1

[4] = system: P. aeruginosa (ATCC 27853); assay: microbe, parasite or virus in culture; type: cell-based; conditions: for antibacterial activity in words: P. aeruginosa, summary of MICs
Protocol: as §1

[5] = system: K. pneumoniae (NCTC 5055); assay: microbe, parasite or virus in culture; type: cell-based
Protocol: as §1

[6] = system: E. coli (ATCC 15597); assay: microbe, parasite or virus in culture; type: cell-based
Protocol: as §1

[7] = system: S. typhimurium (DA6192); assay: Minimum inhibitory concentration, broth microdilution; type: cell-based; conditions: 24 h at 37° C.
Protocol: as §1

[8] = system: Human erythrocytes; assay: Hemolysis assay; type: cell-based
Protocol: (§2) Hemolysis assay. Hemolysis was determined using human erythrocytes sourced commercially from Cambridge Bioscience Ltd. and used within two days. 10% (vol/vol) suspensions of human erythrocytes were incubated with NI01, its derivatives or antibiotics. The cells were rinsed four times in 10 mM phosphate buffer saline (PBS, GibcoTM), pH 7.2, by repeated centrifugation and re-suspension (3 min at 3000×g). The cells were then incubated at room temperature for 1 h in either deionized water (fully hemolysed control), PBS, or with a corresponding antimicrobial agent in PBS. After centrifugation at 10,000×g for 5 min, the supernatant was separated from the pellet, and the absorbance was measured at 550 nm using a SpectraMax i3× Multi-Mode Microplate Reader (Molecular Devices). Absorbance of the suspension treated with deionized water defined complete hemolysis. The values given in Table S2 correspond to concentrations needed to lyse half of the sample population (50% lysis of erythrocytes) and are expressed as median hemolytic doses—HD50.

[9] = Hemolysis assay; type: cell-based, human; conditions: human, human erythrocytes, 10% (vol/vol) suspension, pH 7.2
Protocol: as §2

[10] = system: mammalian cells lines; conditions: cited from earlier work
[11] = In-liquid AFM imaging of SLBs mimicking bacterial membranes; conditions: 0.25 μM
Text: Lipid Vesicle Preparation. 1-palmitoyl-2-oleoyl-glycero-3-phosphocholine (POPC) with 1-palmitoyl-2-oleoyl-sn-glycero-3-phospho-(1′-rac-glycerol) (POPG) lipids used for vesicle construction were from Avanti Polar Lipids (Alabaster, USA). POPC was used as mammalian model membranes, and POPC/POPG (3:1, molar ratios) was used as bacterial model membranes. The lipids were weighted up, dissolved in chloroform-methanol (2:1, vol/vol), and dried under a nitrogen stream to form a thin film. The film was hydrated in 10 mM phosphate buffer (pH 7.4), vortexed for 2 min and bath sonicated for 30 min. The obtained suspension was extruded using a hand-held extruder (Avanti Polar lipids) (29 times, polycarbonate filter, 0.05 μm) to give a clear solution of small unilamellar vesicles, which were analysed (50 nm) by photon correlation spectroscopy (ZEN3600; Malvern Instruments, UK) following the re-suspension of vesicles to a final concentration of 1 mg/mL. Dynamic light scattering batch measurements were carried out in a low volume disposable cuvette at 25° C. Hydrodynamic radii were obtained through the fitting of autocorrelation data using the manufacturer's Dispersion Technology Software (version 5.10).
Preparation of SLBs for in-liquid AFM imaging. SLBs were formed using a vesicle fusion method as described elsewhere.^19 Freshly prepared vesicles (1.5 μL, 3 mg/mL) were added to cleaved mica that was pre-hydrated in 20 mM MOPS, 120 mM NaCl, 20 mM MgCl2 (pH 7.4).
After incubation over 45 min, the samples were washed 10 times with imaging buffer (20 mM MOPS, with 120 mM NaCl, pH 7.4) to remove unfused vesicles. The resulting SLBs were checked to confirm they were defect free. Mica discs (Agar Scientific, Stansted, UK) were glued to a metal puck, and freshly cleaved prior to lipid deposition.
In-liquid AFM imaging of SLBs. The topographic imaging of SLBs in aqueous buffers was performed on a Multimode 8 AFM system (Bruker AXS, USA) using Peak Force Tapping™ mode and MSNL-E cantilevers (Bruker AFM probes, USA). Images were taken at the PeakForce frequency of 2 kHz, PeakForce amplitude of 10-20 nm and PeakForce set-point of 10-30 mV (<100 pN). The images were then processed using Gwyddion (http://gwyddion.net) for line-by-line background subtraction (flattening) and plane fitting. NI01 or its derivatives were introduced into a 100-μL fluid cell (Bruker AXS, USA) to the final concentrations stated.

[12] = Thermal unfolding by CD spectroscopy; type: physicochemical; conditions: 20 μM protein, pH 7.4, 10 mM phosphate buffer
Protocol: Circular Dichroism Spectroscopy. Aqueous peptide solutions (300 μL, at a given concentration) were prepared in filtered (0.22 μm), 10 mM phosphate buffer, pH 7.4. CD spectra recorded in the presence of synthetic membranes are for L/P molar ratio of 100. All CD spectra were recorded on a JASCO J-810 spectropolarimeter fitted with a Peltier temperature controller. All measurements were taken in ellipticities in mdeg and converted to molar ellipticities by normalizing for the concentration of peptide bonds and cuvette path length ([θ], deg cm2 dmol−1 res−1). The data collected with a 1 nm step and 1 s collection time per step are presented as the average of 4 scans. Thermal denaturation curves were recorded with 2° C. intervals using 1 nm bandwidth, 180 s equilibration time for each spectrum and with 2° C./min ramp rate.

[13] = K. pneumoniae (NCTC 5055), 24 h at 37° C.

Molecule: CC1(C)S[C@@H]2[C@H](NC(=O)[C@H](N)c3ccccc3)C(=O)N2[C@H]1C(=O)O [ampicillin, reference compound]
- MIC ([1]; Staphylococcus aureus, ATCC6538, S. aureus (ATCC 6538), 24 h at 37° C., read-out: Minimum Inhibitory Concentration): 1 µg/mL (≈ 2.86 µM)
- MIC ([2]; Micrococcus luteus, ATCC49732, M. luteus (ATCC 49732), 24 h at 37° C., read-out: Minimum Inhibitory Concentration): 1 µg/mL (≈ 2.86 µM)
- MIC ([3]; Bacillus subtilis, ATCC6633, B. subtilis (ATCC 6633), 24 h at 37° C., read-out: Minimum Inhibitory Concentration): 9 µg/mL (≈ 25.8 µM)
- MIC ([4]; Pseudomonas aeruginosa, ATCC27853, P. aeruginosa (ATCC 27853), 24 h at 37° C., read-out: Minimum Inhibitory Concentration): 8 µg/mL (≈ 22.9 µM)
- MIC ([5]; Klebsiella pneumoniae, NCTC5055, K. pneumoniae (NCTC 5055), 24 h at 37° C., read-out: Minimum Inhibitory Concentration): 5 µg/mL (≈ 14.3 µM)
- MIC ([6]; Escherichia coli, ATCC15597, E. coli (ATCC 15597), 24 h at 37° C., read-out: Minimum Inhibitory Concentration): 24 µg/mL (≈ 68.7 µM)
- MIC ([7]; Salmonella enterica): 8 µg/mL (≈ 22.9 µM)

Molecule: CC[C@H](C)[C@H](NC(=O)CN)C(=O)NCC(=O)N[C@@H](C)C(=O)N[C@H](C(=O)N[C@@H](CC(C)C)C(=O)N[C@@H](CCCCN)C(=O)N[C@H](C(=O)N[C@@H](CC(C)C)C(=O)N[C@H](C(=O)N[C@H](C(=O)NCC(=O)N[C@@H](CC(C)C)C(=O)N1CCC[C@H]1C(=O)N[C@@H](C)C(=O)N[C@@H](CC(C)C)C(=O)N[C@H](C(=O)N[C@@H](CO)C(=O)N[C@@H](Cc1c[nH]c2ccccc12)C(=O)N[C@H](C(=O)N[C@@H](CCCCN)C(=O)N[C@@H](CCCNC(=N)N)C(=O)N[C@@H](CCCCN)C(=O)N[C@@H](CCCNC(=N)N)C(=O)N[C@@H](CCC(N)=O)C(=O)N[C@@H](CCC(N)=O)C(N)=O)[C@@H](C)CC)[C@@H](C)CC)[C@@H](C)O)[C@@H](C)O)C(C)C)C(C)C [melittin]
- Minimum Inhibitory Concentration [5, 13]: 9 µg/mL

Molecule: For-MAAFMKLIQFLATKGQKYVSLAWKHKGTILKWINAGQSFEWIYKQIKKLWA [NI01, epidermicin NI01]
- hemolytic activity in words [8]: non-hemolytic
- HC50 at 1 h [9]: 500 µg/mL
- toxicity towards mammalian cells lines [10]: negligible levels of toxicity

Molecule: For-[dM][dA][dA][dF][dM][dK][dL][dI][dQ][dF][dL][dA][dT][dK]G[dQ][dK][dY][dV][dS][dL][dA][dW][dK][dH][dK]G[dT][dI][dL][dK][dW][dI][dN][dA]G[dQ][dS][dF][dE][dW][dI][dY][dK][dQ][dI][dK][dK][dL][dW][dA] [NI01 D-form]
- hemolytic activity in words [8]: non-hemolytic
- HC50 at 1 h [9]: 600 µg/mL
- mode of membrane disruption (AFM) [11]: strikingly similar pattern to that of the all-L form

Molecule: KGTILKWINAGQSFEWIYKQIKKLWA-NH2 [α3α4]
- HC50 at 1 h [9]: 150 µg/mL
- antibacterial activity in words [1]: equally effective
- antibacterial activity in words [4]: ineffective
- mode of membrane disruption (AFM) [11]: mixed mode of membrane disruption

Molecule: KYVSLAWKHKGTILKWINAGQSFEWIYKQIKKLWA-NH2 [α2α3α4]
- HC50 at 1 h [9]: 200 µg/mL

Molecule: MAAFMKLIQFLATKGQKYVSLAWK-NH2 [α1α2]
- HC50 at 1 h [9]: 150 µg/mL
- antibacterial activity in words [1]: equally effective
- antibacterial activity in words [4]: ineffective
- mode of membrane disruption (AFM) [11]: extended petal-like pores

Molecule: MAAFMRLIQFLATRGQRYVSLAWRRRGTILRWINAGQSFEWIYRQIRRLWA-NH2 [NI01 R-mutant]
- hemolytic activity in words [8]: drastically increased
- HC50 at 1 h [9]: 250 µg/mL
- Minimum Inhibitory Concentration ([1]; ATCC 6538, 24 h): 5 µg/mL
- Minimum Inhibitory Concentration ([2]; ATCC 49732, 24 h): 2 µg/mL
- Minimum Inhibitory Concentration ([3]; ATCC 6633, 24 h): 18 µg/mL
- Minimum Inhibitory Concentration ([4]; ATCC 27853, 24 h): >300 µg/mL
- Minimum Inhibitory Concentration ([5]; NCTC 5055, 24 h): 18 µg/mL
- Minimum Inhibitory Concentration ([6]; ATCC 15597, 24 h): 9 µg/mL
- mode of membrane disruption (AFM) [11]: exclusively thinning patches

Molecule: QKYVSLAWKHKGTILKWINA-NH2 [α2α3]
- concentration showing no hemolytic activity [8]: > 600 µg/mL

Molecule: aureocin A53
- transition midpoint (TM) of thermal unfolding [12]: ~54 °C
- mode of membrane disruption (AFM) [11]: membrane thinning patches and transmembrane lesions and pores

Molecule: polymyxin B [reference compound]
- HD30, median hemolytic doses to achieve 50% lysis ([8]; Human erythrocytes, 1 h at room temperature): 350 µg/mL
- Minimum Inhibitory Concentration ([1]; S. aureus (ATCC 6538), 24 h at 37° C.): 32 µg/mL
- Minimum Inhibitory Concentration ([2]; M. luteus (ATCC 49732), 24 h at 37° C.): 2 µg/mL
- Minimum Inhibitory Concentration ([3]; B. subtilis (ATCC 6633), 24 h at 37° C.): 4 µg/mL
- Minimum Inhibitory Concentration ([4]; P. aeruginosa (ATCC 27853), 24 h at 37° C.): 2 µg/mL
- Minimum Inhibitory Concentration [5, 13]: 4 µg/mL
- Minimum Inhibitory Concentration ([6]; E. coli (ATCC 15597), 24 h at 37° C.): 2 µg/mL
- Minimum Inhibitory Concentration [7]: 2 µg/mL
